# Source: BigSolDB 2.1
smiles,measurement,setting,value
CC(S)C(=O)NCC(=O)O (stereo not given),solubility (mole fraction),"in acetonitrile, 273.15 K",0.00946
same,solubility (mole fraction),"in acetonitrile, 278.15 K",0.0105
same,solubility (mole fraction),"in acetonitrile, 283.15 K",0.0115
same,solubility (mole fraction),"in acetonitrile, 288.15 K",0.0126
same,solubility (mole fraction),"in acetonitrile, 293.15 K",0.0138
same,solubility (mole fraction),"in acetonitrile, 298.15 K",0.0151
same,solubility (mole fraction),"in acetonitrile, 303.15 K",0.0165
same,solubility (mole fraction),"in acetonitrile, 308.15 K",0.018
same,solubility (mole fraction),"in acetonitrile, 313.15 K",0.0196
same,solubility (mole fraction),"in acetonitrile, 318.15 K",0.0212
same,solubility (mole fraction),"in isobutanol, 273.15 K",0.0119
same,solubility (mole fraction),"in isobutanol, 278.15 K",0.0141
same,solubility (mole fraction),"in isobutanol, 283.15 K",0.0166
same,solubility (mole fraction),"in isobutanol, 288.15 K",0.0191
same,solubility (mole fraction),"in isobutanol, 293.15 K",0.0217
same,solubility (mole fraction),"in isobutanol, 298.15 K",0.0247
same,solubility (mole fraction),"in isobutanol, 303.15 K",0.0281
same,solubility (mole fraction),"in isobutanol, 308.15 K",0.0321
same,solubility (mole fraction),"in isobutanol, 313.15 K",0.0365
same,solubility (mole fraction),"in isobutanol, 318.15 K",0.0413
same,solubility (mole fraction),"in n-butanol, 273.15 K",0.0251
same,solubility (mole fraction),"in n-butanol, 278.15 K",0.0311
same,solubility (mole fraction),"in n-butanol, 283.15 K",0.0379
same,solubility (mole fraction),"in n-butanol, 288.15 K",0.0451
same,solubility (mole fraction),"in n-butanol, 293.15 K",0.0529
same,solubility (mole fraction),"in n-butanol, 298.15 K",0.0614
same,solubility (mole fraction),"in n-butanol, 303.15 K",0.0709
same,solubility (mole fraction),"in n-butanol, 308.15 K",0.0811
same,solubility (mole fraction),"in n-butanol, 313.15 K",0.0918
same,solubility (mole fraction),"in n-butanol, 318.15 K",0.103
same,solubility (mole fraction),"in toluene, 273.15 K",0.00033
same,solubility (mole fraction),"in toluene, 278.15 K",0.00037
same,solubility (mole fraction),"in toluene, 283.15 K",0.00041
same,solubility (mole fraction),"in toluene, 288.15 K",0.00045
same,solubility (mole fraction),"in toluene, 293.15 K",0.0005
same,solubility (mole fraction),"in toluene, 298.15 K",0.00056
same,solubility (mole fraction),"in toluene, 303.15 K",0.00062
same,solubility (mole fraction),"in toluene, 308.15 K",0.00069
same,solubility (mole fraction),"in toluene, 313.15 K",0.00077
same,solubility (mole fraction),"in toluene, 318.15 K",0.00087
